According to article PMC11125953 (Viruses, 2024):
Where a name gives a salt, the structure may show the parent alone. Read-outs that look alike come from different tables or passages of the source.

Key:
[1] = test system: EHV-4 405/76 reference strain; assay: RTCA; type: cell-based, Equid herpesvirus 4; details: for AUCn: area under normalized Cell Index curves, 0-120 hpi, EHV-4-infected E. Derm cells
[2] = test system: EHV-4 405/76 reference strain; details: for Si (CC50/EC50, RTCA): ratio of CC50 to EC50 obtained by RTCA; for CIT50 increase: RTCA, EHV-4-infected E. Derm cells
[3] = test system: EHV-4 405/76 reference strain; details: ratio of CC50 to EC50 obtained by qPCR
[4] = Cytotoxicity by CellTiter-Glo; details: horse
[5] = Cytotoxicity by impedance using RTCA; details: horse, E. Derm cells
[6] = test system: EHV-4 405/76 reference strain; assay: microbe, parasite or virus in culture
[7] = test system: EHV-4 405/76 reference strain; assay: microbe, parasite or virus in culture; remark: listed apart in the source
in vitro [8] = details: horse
in vitro [9] = details: horse; remark: listed apart in the source
[10] = in vivo; cited from earlier work
[11] = Equid alphaherpesvirus 4, read-out: RTCA EC50 (µM ± S.D)
[12] = Equid alphaherpesvirus 4, read-out: RTCA EC50 (µg/mL ± S.D)
[13] = Equid alphaherpesvirus 4, read-out: qPCR EC50 (µM ± S.D)
[14] = Equid alphaherpesvirus 4, read-out: qPCR EC50 (µg/mL ± S.D)
[15] = Equid alphaherpesvirus 4, 120 h, read-out: %AUCn

| SMILES | AUCn ([1]; 0.4 µM) | AUCn ([1]; 2 µM) | AUCn ([1]; 10 µM) | AUCn ([1]; 50 µM) | Si (CC50/EC50, RTCA) [2] | EC50 [6, 11] [µM] | EC50 [7, 13] [µM] | EC50 [7, 14] [µg/mL] | further results |
| --- | --- | --- | --- | --- | --- | --- | --- | --- | --- |
| Cc1nc(N(C)C(=O)Cc2ccc(-c3ccccn3)cc2)sc1S(N)(=O)=O [BAY 57-1293, pritelivir] | 27.43 | 27.62 | 44.70 | 145.59 | >2.81 | 17.8 ± 1.2 | 3.31 ± 0.89 | 1.33 ± 0.36 | SI (CC50 CellTiter-Glo/EC50 qPCR) [3]: >15.11; CC50 ([4]; E. Derm cells): > 50 µM; CC50 [5]: > 50 µM; EC50 [6, 12]: 7.15 ± 0.48 µg/mL |
| Nc1ccn(C[C@@H](CO)OCP(=O)(O)O)c(=O)n1 [Cidofovir] | 38.54 | 42.07 | 40.56 | 59.40 | >3.98 | 12.6 ± 4.32 | 7.99 ± 3.38 | 2.23 ± 0.94 | SI (CC50 CellTiter-Glo/EC50 qPCR) [3]: >6.26; CC50 ([4]; E. Derm cells): > 50 µM; CC50 [5]: > 50 µM; EC50 [6, 12]: 3.5 ± 1.21 µg/mL |
| Nc1ncnc2c1ncn2[C@@H]1O[C@H](CO)[C@@H](O)[C@@H]1O [Vidarabine] | 41.3 | 35.7 | 48.7 | 71.5 | >2.94 | 17 ± 4.5 | 13.7 ± 1.92 | 3.91 ± 0.55 | CC50 (in vitro [8]): > 50 µM; CC50 (in vitro [9]): > 50 µM; EC50 [6, 12]: 4.85 ± 1.28 µg/mL |
| CC(C)(C)C(=O)OCOP(=O)(COCCn1cnc2c(N)ncnc21)OCOC(=O)C(C)(C)C [Adefovir dipivoxil] | 99.92 | 93.75 | 73.47 | 39.70 |  |  |  |  |  |
| COc1nc(N)nc2c1ncn2[C@@H]1O[C@H](CO)[C@@H](O)[C@@H]1O [Nelarabine] | 33.26 | 32.33 | 30.63 | 40.34 |  |  |  |  |  |
| CC(C)OC(=O)[C@H](C)N[P@](=O)(OC[C@H]1O[C@@H](n2ccc(=O)[nH]c2=O)[C@](C)(F)[C@@H]1O)Oc1ccccc1 [Sofosbuvir] | 35.31 | 33.28 | 34.01 | 35.76 |  |  |  |  |  |
| CC(=O)OCC(CCn1cnc2cnc(N)nc21)COC(C)=O [Famciclovir] | 39.12 | 34.29 | 36.03 | 37.57 |  |  |  |  |  |
| O=c1[nH]cc(F)c(=O)[nH]1 [5-fluorouracil] | 39.89 | 31.41 | 31.13 | 36.75 |  |  |  |  |  |
| CCCCCOC(=O)Nc1nc(=O)n([C@@H]2O[C@H](C)[C@@H](O)[C@H]2O)cc1F [Capecitabine] | 35.92 | 36.42 | 36.13 | 33.97 |  |  |  |  |  |
| O=C(N/N=C/c1ccc(O)c(O)c1)c1cc2ccccc2cc1O [Dynasore] | 13.10 | 13.81 | 18.85 | 23.18 |  |  |  |  |  |
| Nc1nc2nc[nH]c2c(=S)[nH]1 [6-thioguanine] | 37.89 | 38.05 | 34.04 | 29.32 |  |  |  |  |  |
| CC(C)[C@H](N)C(=O)OCC(CO)OCn1cnc2c(=O)nc(N)[nH]c21 (some centres unmarked) [Valganciclovir hydrochloride] | 33.79 | 42.41 | 75.80 | 145.98 | >5.24 | 9.55 ± 2.81 | 3.6 ± 1.02 | 1.28 ± 0.36 | SI (CC50 CellTiter-Glo/EC50 qPCR) [3]: >13.89; CC50 (in vitro [8]): > 50 µM; CC50 (in vitro [9]): > 50 µM; improvement of the bioavailability of ganciclovir by oral valganciclovir [10]: 41 ± 20%; EC50 [6, 12]: 3.38 ± 1 µg/mL |
| Cc1cn([C@H]2C=C[C@@H](CO)O2)c(=O)[nH]c1=O [Stavudine] | 37.85 | 32.94 | 32.23 | 30.20 |  |  |  |  |  |
| CC(C)[C@H](N)C(=O)OCCOCn1cnc2c(=O)[nH]c(N)nc21 [Valaciclovir] | 33.27 | 28.12 | 27.99 | 42.38 |  |  |  |  |  |
| CC(C)OC(=O)OCOP(=O)(CO[C@H](C)Cn1cnc2c(N)ncnc21)OCOC(=O)OC(C)C [Tenofovir disoproxil] | 34.89 | 43.49 | 93.87 | 52.88 |  |  |  |  |  |
| O=c1c(-c2ccc(O)cc2)coc2cc(O)cc(O)c12 [Genistein] | 11.7 | 12.8 | 13.3 | 11.8 |  |  |  |  | activation at 0.4 µM [1, 15]: -17.5%; activation at 2 µM [1, 15]: -9.65%; activation at 10 µM [1, 15]: -6.34%; activation at 50 µM [1, 15]: -16.7% |
| C[C@H](CCCC(C)(C)O)[C@H]1CC[C@H]2[C@@H]3CC=C4C[C@@H](O)CC[C@]4(C)[C@H]3CC[C@]12C [25-hydroxycholesterol] | 39.29 | 34.81 | 29.79 | 31.86 |  |  |  |  |  |
| CC(C)Nc1nc2cc(Cl)c(Cl)cc2n1[C@H]1O[C@@H](CO)[C@H](O)[C@@H]1O [Maribavir] | 33.80 | 34.21 | 32.99 | 45.42 |  |  |  |  |  |
| Cc1cn([C@@H]2C[C@@H](O)[C@H](CO)O2)c(=O)[nH]c1=O [Telbivudine] | 30.51 | 35.43 | 31.31 | 39.04 |  |  |  |  |  |
| Nc1ccn([C@@H]2O[C@H](CO)[C@@H](O)[C@@H]2O)c(=O)n1 [Cytarabine] | 28.59 | 32.46 | 91.79 | 91.89 |  |  |  |  |  |
| Nc1nc(O)c2ncn(COC(CO)CO)c2n1 [Ganciclovir] | 57.9 | 74.3 | 116.3 | 138.7 | >12.35 | 4.05 ± 0.22 | 1.32 ± 1.06 | 0.34 ± 0.27 | SI (CC50 CellTiter-Glo/EC50 qPCR) [3]: >37.88; CC50 (in vitro [8]): > 50 µM; CC50 (in vitro [9]): > 50 µM; EC50 [6, 12]: 1.03 ± 0.06 µg/mL |
| O=c1[nH]c(=O)n([C@H]2C[C@H](O)[C@@H](CO)O2)cc1I [Idoxuridine] | 36.8 | 30.6 | 63.0 | 143.7 | >1.48 | 33.8 ± 15.8 | 7.49 ± 1 | 2.65 ± 0.35 | SI (CC50 CellTiter-Glo/EC50 qPCR) [3]: >6.68; CC50 (in vitro [8]): > 50 µM; CC50 (in vitro [9]): > 50 µM; EC50 [6, 12]: 11.9 ± 5.61 µg/mL |
| C[C@@]1(CO)[C@H](O)CC[C@@]2(C)[C@H]1CC[C@H]1C[C@@H]3C[C@@]12CC[C@]3(O)CO [Aphidicolin] | 27.44 | 81.72 | 106.29 |  | >23.15 | 2.16 ± 0.18 | 0.31 ± 0.09 | 0.11 ± 0.03 | CIT50 increase ([2]; 1.25 µM): 7.48 ± 2.69 h; CIT50 increase ([2]; 2.5 µM): 22.43 ± 4.89 h; SI (CC50 CellTiter-Glo/EC50 qPCR) [3]: >161.29; CC50 [4]: > 50 µM; CC50 [5]: > 50 µM |
